Source: ChEMBL document CHEMBL5154787 (J Med Chem, 2022)

Columns and labels:
[1] = Ratio of drug concentration in spinal cord to plasma in CCI induced thermal hyperalgesia in Sprague-Dawley rat at 1 mg/kg, po measured at 5.5 hrs post dose; type: ADME, organism-based
[2] = Protein binding in mouse brain assessed as unbound fraction at 1 uM measured after 4 hrs by LC/MS/MS analysis; type: ADME, tissue-based
[3] = tested on: Rattus norvegicus; test: Analgesic activity in CCI induced thermal hyperalgesia in Sprague-Dawley rat assessed as reduction in thermal hyperalgesia by measuring inhibition of pain response at 3 mg/kg, po measured after 5.5 hrs by Hargreaves test relative to control; type: functional; design: scale not given: the % may be the effect or the level left
[4] = Plasma concentration in rat at 3 mg/kg, po measured after 4 hrs; type: ADME, organism-based
[5] = Drug concentration in CCI induced thermal hyperalgesia in Sprague-Dawley rat spinal cord at 1 mg/kg, po measured after 5.5 hrs; type: ADME, organism-based; conditions: read-out: Ct
[6] = Solubility of compound in FessiF incubated for 24 hrs; type: physicochemical
[7] = Solubility of compound at pH 1 measured after 24 hrs; type: physicochemical; conditions: buffer

Kp at 5.5 h [1] | fraction unbound at 4 h, 1 µM [2] | concentration at 4 h [4] [nM] | concentration at 5.5 h [5] [nM] | solubility at 24 h [6] [µg/mL] | solubility at 24 h [7] [µg/mL] | Structure (SMILES) | Activity [3] [%]
18 | 0.018 | 47 | 217 |  |  | CC(C)C[C@](C)(N)COc1cnc(-c2ccnc(C(F)F)c2)cc1C(F)F | 100
 |  |  |  | > 1000 | > 1000 | COC(=O)Nc1cc(-c2ccc(OC[C@@](C)(N)CC(C)C)c(C)n2)ccn1 | 
